From patent US20120172368A1, “Bis-Benzimidazole Derivatives” (priority 2009, published 2012)

test system: HCV type 1b replicon in Huh-7 luc/neo (Huh-Luc) cells; assay: HCV replicon assay (Huh-Luc, luciferase readout); assay type: cell-based; settings: Hepatitis C virus, Huh-7, 72 h, three days incubation, luciferase activity, read-out: HCV-REP-HUH-LUC_EC50
Excerpt: The compounds of formula (I) were examined for inhibitory activity in the HCV replicon. This cellular assay is based on a bicistronic expression construct, as described by Lohmann et al. (1999) Science vol. 285 pp. 110-113 with modifications described by Krieger et al. (2001) Journal of Virology 75: 4614-4624, in a multi-target screening strategy.
In essence, the method was as follows:
The assay utilized the stably transfected cell line Huh-7 luc/neo (hereafter referred to as Huh-Luc). This cell line harbors an RNA encoding a bicistronic expression construct comprising the wild type NS3-NS5B regions of HCV type 1b translated from an Internal Ribosome Entry Site (IRES) from encephalomyocarditis virus (EMCV), preceded by a reporter portion (FfL-luciferase), and a selectable marker portion (neoR, neomycine phosphotransferase). The construct is flanked by 5′ and 3′ NTRs (non-translated regions) from HCV type 1b. Continued culture of the replicon cells in the presence of G418 (neoR) is dependent on the replication of the HCV RNA. The stably transfected replicon cells that express HCV RNA, which replicates autonomously and to high levels, encoding inter alia luciferase, were used for screening the antiviral compounds.
The replicon cells were plated in 384 well plates in the presence of the test and control compounds which were added in various concentrations. Following an incubation of three days, HCV replication was measured by assaying luciferase activity (using standard luciferase assay substrates and reagents and a Perkin Elmer ViewLux™ ultraHTS microplate imager). Replicon cells in the control cultures have high luciferase expression in the absence of any inhibitor. The inhibitory activity of the compound on luciferase activity was monitored on the Huh-Luc cells, enabling a dose-response curve for each test compound. EC50 values were then calculated, which represent the amount of compound required to decrease the level of detected luciferase activity by 50%, or more specifically, to reduce the ability of the genetically linked HCV replicon RNA to replicate.

| SMILES | EC50 |
| --- | --- |
| COC(=O)N[C@H](C(=O)N1CCC[C@H]1c1nc2cc(-c3ccc(-c4ccc5nc([C@@H]6CCCN6C(=O)[C@@H](NC(=O)OC)C(C)C)[nH]c5c4)nn3)ccc2[nH]1)C(C)C [Compound 1] | 0.13 nM |
| COC(=O)N[C@H](C(=O)N1CCC[C@H]1c1nc2cc(-c3ncc(-c4ccc5nc([C@@H]6CCCN6C(=O)[C@@H](NC(=O)OC)[C@@H](C)OC)[nH]c5c4)cn3)ccc2[nH]1)[C@@H](C)OC [Compound 3] | 0.13 nM |
| COC(=O)N[C@H](C(=O)N1CCC[C@H]1c1nc2cc(-c3ncc(-c4ccc5nc([C@@H]6CCCN6C(=O)[C@@H](NC(=O)OC)C(C)C)[nH]c5c4)cn3)ccc2[nH]1)C(C)C [Compound 4] | 0.03 nM |
| COC(=O)N[C@@H](C(=O)N1CCC[C@H]1c1nc2cc(-c3ncc(-c4ccc5nc([C@@H]6CCCN6C(=O)[C@H](NC(=O)OC)c6ccccc6)[nH]c5c4)cn3)ccc2[nH]1)c1ccccc1 [Compound 5] | < 0.015 nM |
| COC(=O)N[C@@H](C(=O)N1CCC[C@H]1c1nc2cc(-c3ccc(-c4ccc5nc([C@@H]6CCCN6C(=O)[C@H](NC(=O)OC)c6ccccc6)[nH]c5c4)nn3)ccc2[nH]1)c1ccccc1 [Compound 6] | 0.045 nM |
| COC(=O)N[C@H](C(=O)N1CCC[C@H]1c1nc2cc(-c3ncc(-c4ccc5nc([C@@H]6CCCN6C(=O)[C@@H](NC(=O)OC)C6CC6)[nH]c5c4)cn3)ccc2[nH]1)C1CC1 [Compound 7] | 0.059 nM |
| COC(=O)N[C@H](C(=O)N1CCC[C@H]1c1nc2ccc(-c3ccc(-c4ccc5nc([C@@H]6CCCN6C(=O)[C@@H](NC(=O)OC)[C@@H](C)OC)[nH]c5c4)nc3)cc2[nH]1)[C@@H](C)OC [Compound 9] | 0.31 nM |
